Conditions: Liquid; for speed of sound: Pulse-echo method; for mass density: Vibrating tube method

CCCCCCCCCCCCCCCCCc1ccccc1 [heptadecane, 1-phenyl-]
Conditions | mass density [kg/m3] | speed of sound [m/s]
303.15 K, 100 kPa | 847.62 | 1422.6
303.15 K, 5000 kPa | 850.37 | –
303.15 K, 10000 kPa | 853.14 | 1467.5
303.15 K, 15000 kPa | 855.85 | –
303.15 K, 20000 kPa | 858.47 | 1510.9
303.15 K, 25000 kPa | 861 | –
303.15 K, 30000 kPa | 863.37 | 1552
303.15 K, 35000 kPa | 865.81 | –
303.15 K, 40000 kPa | 868.19 | 1590.5
303.15 K, 45000 kPa | 870.43 | –
303.15 K, 50000 kPa | 872.65 | 1627.2
303.15 K, 55000 kPa | 874.7 | –
303.15 K, 60000 kPa | 876.93 | 1661.9
303.15 K, 70000 kPa | – | 1695.6
313.15 K, 100 kPa | 840.87 | 1387.1
313.15 K, 5000 kPa | 843.75 | –
313.15 K, 10000 kPa | 846.65 | 1433.6
313.15 K, 15000 kPa | 849.47 | –
313.15 K, 20000 kPa | 852.17 | 1479.2
313.15 K, 25000 kPa | 854.73 | –
313.15 K, 30000 kPa | 857.38 | 1520.4
313.15 K, 35000 kPa | 859.9 | –
313.15 K, 40000 kPa | 862.24 | 1559.7
313.15 K, 45000 kPa | 864.56 | –
313.15 K, 50000 kPa | 866.8 | 1597.9
313.15 K, 55000 kPa | 869.08 | –
313.15 K, 60000 kPa | 870.6 | 1633.6
313.15 K, 70000 kPa | – | 1667.3
313.15 K, 80000 kPa | – | 1700
313.15 K, 90000 kPa | – | 1731.8
313.15 K, 100000 kPa | – | 1762
313.15 K, 110000 kPa | – | 1790.2
313.15 K, 120000 kPa | – | 1818.7
313.15 K, 130000 kPa | – | 1847.1
323.15 K, 100 kPa | 834.27 | 1352.6
323.15 K, 5000 kPa | 837.23 | –
323.15 K, 10000 kPa | 840.29 | 1402.3
323.15 K, 15000 kPa | 843.15 | –
323.15 K, 20000 kPa | 845.93 | 1447.9
323.15 K, 25000 kPa | 848.7 | –
323.15 K, 30000 kPa | 851.34 | 1490.8
323.15 K, 35000 kPa | 853.89 | –
323.15 K, 40000 kPa | 856.43 | 1531.1
323.15 K, 45000 kPa | 858.84 | –
323.15 K, 50000 kPa | 861.35 | 1569.2
323.15 K, 55000 kPa | 863.55 | –
323.15 K, 60000 kPa | 865.8 | 1605.8
323.15 K, 70000 kPa | – | 1640.7
323.15 K, 80000 kPa | – | 1673.9
323.15 K, 90000 kPa | – | 1705.8
323.15 K, 100000 kPa | – | 1736.6
323.15 K, 110000 kPa | – | 1766.3
323.15 K, 120000 kPa | – | 1794.9
323.15 K, 130000 kPa | – | 1822.8
323.15 K, 140000 kPa | – | 1849.3
323.15 K, 150000 kPa | – | 1875.5
333.15 K, 100 kPa | 827.59 | 1319.9
333.15 K, 5000 kPa | 830.84 | –
333.15 K, 10000 kPa | 833.94 | 1370.2
333.15 K, 15000 kPa | 837.13 | –
333.15 K, 20000 kPa | 839.97 | 1417.3
333.15 K, 25000 kPa | 842.84 | –
333.15 K, 30000 kPa | 845.52 | 1461.4
333.15 K, 35000 kPa | 848.14 | –
333.15 K, 40000 kPa | 850.62 | 1502.9
333.15 K, 45000 kPa | 853.3 | –
333.15 K, 50000 kPa | 855.69 | 1542.1
333.15 K, 55000 kPa | 858 | –
333.15 K, 60000 kPa | 860.35 | 1579.2
333.15 K, 70000 kPa | – | 1614.6
333.15 K, 80000 kPa | – | 1648.7
333.15 K, 90000 kPa | – | 1681.3
333.15 K, 100000 kPa | – | 1712.2
333.15 K, 110000 kPa | – | 1742.3
333.15 K, 120000 kPa | – | 1771.7
333.15 K, 130000 kPa | – | 1799.8
333.15 K, 140000 kPa | – | 1826.9
333.15 K, 150000 kPa | – | 1853.6
343.15 K, 100 kPa | 820.95 | 1287
343.15 K, 5000 kPa | 824.32 | –
343.15 K, 10000 kPa | 827.71 | 1338.7
343.15 K, 15000 kPa | 830.75 | –
343.15 K, 20000 kPa | 833.93 | 1387.3
343.15 K, 25000 kPa | 836.75 | –
343.15 K, 30000 kPa | 839.62 | 1432.3
343.15 K, 35000 kPa | 842.4 | –
343.15 K, 40000 kPa | 845.11 | 1475.5
343.15 K, 45000 kPa | 847.75 | –
343.15 K, 50000 kPa | 850.31 | 1515.3
343.15 K, 55000 kPa | 852.73 | –
343.15 K, 60000 kPa | 855.09 | 1553.3
343.15 K, 70000 kPa | – | 1589.5
343.15 K, 80000 kPa | – | 1624.1
343.15 K, 90000 kPa | – | 1657.2
343.15 K, 100000 kPa | – | 1688
343.15 K, 110000 kPa | – | 1719.2
343.15 K, 120000 kPa | – | 1748.7
343.15 K, 130000 kPa | – | 1777.4
343.15 K, 140000 kPa | – | 1805
343.15 K, 150000 kPa | – | 1832
353.15 K, 100 kPa | 814.43 | 1255.2
353.15 K, 5000 kPa | 817.93 | –
353.15 K, 10000 kPa | 821.35 | 1308.6
353.15 K, 15000 kPa | 824.69 | –
353.15 K, 20000 kPa | 827.9 | 1359.3
353.15 K, 25000 kPa | 830.86 | –
353.15 K, 30000 kPa | 833.85 | 1405.3
353.15 K, 35000 kPa | 836.9 | –
353.15 K, 40000 kPa | 839.55 | 1448.5
353.15 K, 45000 kPa | 842.1 | –
353.15 K, 50000 kPa | 844.78 | 1489.5
353.15 K, 55000 kPa | 847.34 | –
353.15 K, 60000 kPa | 849.77 | 1528.3
353.15 K, 70000 kPa | – | 1564.8
353.15 K, 80000 kPa | – | 1600.1
353.15 K, 90000 kPa | – | 1633.4
353.15 K, 100000 kPa | – | 1665.5
353.15 K, 110000 kPa | – | 1696.9
353.15 K, 120000 kPa | – | 1726.9
353.15 K, 130000 kPa | – | 1755.8
353.15 K, 140000 kPa | – | 1783.8
353.15 K, 150000 kPa | – | 1811.1
363.15 K, 100 kPa | 807.8 | 1223.6
363.15 K, 5000 kPa | 811.3 | –
363.15 K, 10000 kPa | 815.14 | 1278.7
363.15 K, 15000 kPa | 818.57 | –
363.15 K, 20000 kPa | 821.81 | 1330.3
363.15 K, 25000 kPa | 824.97 | –
363.15 K, 30000 kPa | 828 | 1378
363.15 K, 35000 kPa | 830.94 | –
363.15 K, 40000 kPa | 833.81 | 1422.2
363.15 K, 45000 kPa | 836.5 | –
363.15 K, 50000 kPa | 839.26 | 1464
363.15 K, 55000 kPa | 841.95 | –
363.15 K, 60000 kPa | 844.41 | 1503.3
363.15 K, 70000 kPa | – | 1541.1
363.15 K, 80000 kPa | – | 1576.4
363.15 K, 90000 kPa | – | 1610.7
363.15 K, 100000 kPa | – | 1643.4
363.15 K, 110000 kPa | – | 1674.6
363.15 K, 120000 kPa | – | 1705
363.15 K, 130000 kPa | – | 1734.4
363.15 K, 140000 kPa | – | 1763.3
363.15 K, 150000 kPa | – | 1790
373.15 K, 100 kPa | 801.11 | 1193
373.15 K, 5000 kPa | 805.07 | –
373.15 K, 10000 kPa | 808.86 | 1249.5
373.15 K, 15000 kPa | 812.48 | –
373.15 K, 20000 kPa | 815.93 | 1302.6
373.15 K, 25000 kPa | 819.17 | –
373.15 K, 30000 kPa | 822.4 | 1351.4
373.15 K, 35000 kPa | 825.42 | –
373.15 K, 40000 kPa | 828.43 | 1396.8
373.15 K, 45000 kPa | 831.28 | –
373.15 K, 50000 kPa | 834.03 | 1439.2
373.15 K, 55000 kPa | 836.72 | –
373.15 K, 60000 kPa | 839.37 | 1479.7
373.15 K, 70000 kPa | – | 1517.7
373.15 K, 80000 kPa | – | 1553.8
373.15 K, 90000 kPa | – | 1588.6
373.15 K, 100000 kPa | – | 1621.8
373.15 K, 110000 kPa | – | 1653.6
373.15 K, 120000 kPa | – | 1684.3
373.15 K, 130000 kPa | – | 1713.8
373.15 K, 140000 kPa | – | 1742.7
373.15 K, 150000 kPa | – | 1770.5
